Measurements from PubChem BioAssay (NCI).
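Cultured in 96-well plates, cells were exposed to test compound for 48 hours across five concentrations. TGI marks complete inhibition of growth.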

Tests used:
Assay in all cases: DTP human tumour cell line panel, 48 h
A549 NSCLC = tested on: A549 NSCLC
ACHN renal = tested on: ACHN renal
DU-145 prostate = tested on: DU-145 prostate
EKVX NSCLC = tested on: EKVX NSCLC
HL-60(TB) leukemia = tested on: HL-60(TB) leukemia
HS 578T breast = tested on: HS 578T breast
KM12 colon = tested on: KM12 colon
M14 melanoma = tested on: M14 melanoma
MDA-MB-231 breast = tested on: MDA-MB-231 breast
NCI-H226 lung = tested on: NCI-H226 lung
NCI/ADR-RES ovarian = tested on: NCI/ADR-RES ovarian
OVCAR-4 ovarian = tested on: OVCAR-4 ovarian
OVCAR-5 ovarian = tested on: OVCAR-5 ovarian
PC-3 prostate = tested on: PC-3 prostate
SF-268 CNS = tested on: SF-268 CNS
SK-MEL-2 melanoma = tested on: SK-MEL-2 melanoma
SK-MEL-5 melanoma = tested on: SK-MEL-5 melanoma
SK-OV-3 ovarian = tested on: SK-OV-3 ovarian
UACC-257 melanoma = tested on: UACC-257 melanoma
UACC-62 melanoma = tested on: UACC-62 melanoma

Row | SMILES | TGI (A549 NSCLC) | TGI (ACHN renal) | TGI (DU-145 prostate) | TGI (EKVX NSCLC) | TGI (HL-60(TB) leukemia) | TGI (HS 578T breast) | TGI (KM12 colon) | TGI (M14 melanoma) | TGI (MDA-MB-231 breast) | TGI (NCI-H226 lung) | TGI (NCI/ADR-RES ovarian) | TGI (OVCAR-4 ovarian) | TGI (OVCAR-5 ovarian) | TGI (PC-3 prostate) | TGI (SF-268 CNS) | TGI (SK-MEL-2 melanoma) | TGI (SK-MEL-5 melanoma) | TGI (SK-OV-3 ovarian) | TGI (UACC-257 melanoma) | TGI (UACC-62 melanoma)
1 | CN(O)C(=O)c1cccc(Cl)c1 | > 100 µM | > 100 µM | > 100 µM | > 100 µM | > 100 µM | > 100 µM | > 100 µM | > 100 µM | > 100 µM | > 100 µM | > 100 µM | > 100 µM | > 100 µM | > 100 µM | > 100 µM | > 100 µM | > 100 µM | > 100 µM | > 100 µM | > 100 µM
2 | O=C(O)c1ccc(S(=O)(=O)c2ccccc2[N+](=O)[O-])cc1 | > 10 µM | > 10 µM | > 10 µM | > 10 µM | > 10 µM | > 10 µM | > 10 µM | > 10 µM | > 10 µM | > 10 µM | > 10 µM | > 10 µM | > 10 µM | > 10 µM | > 10 µM | > 10 µM | > 10 µM | > 10 µM | > 10 µM | > 10 µM
3 | C/C=C/C(O)P1(=O)N(Cc2ccccc2)[C@@H]2CCCC[C@H]2N1Cc1ccccc1 (stereo not given in full) | > 25 µM | > 25 µM | > 25 µM | > 25 µM | > 25 µM | > 25 µM | > 25 µM | > 25 µM | > 25 µM | > 25 µM | > 25 µM | > 25 µM | > 25 µM | > 25 µM | > 25 µM | > 25 µM | > 25 µM | > 25 µM | > 25 µM | > 25 µM
4 | O=c1[nH]nc(Cc2ccc([N+](=O)[O-])cc2)n1CCO | > 100 µM | > 100 µM | > 100 µM | > 100 µM | > 100 µM | > 100 µM | > 100 µM | > 100 µM | > 100 µM | > 100 µM | > 100 µM | > 100 µM | > 100 µM | > 100 µM | > 100 µM | > 100 µM | > 100 µM | > 100 µM | > 100 µM | > 100 µM
5 | COc1ccc(Nc2nc(NS(=O)(=O)c3cc(C)c(Cl)cc3S)n[nH]2)cc1 | > 100 µM | > 100 µM | > 100 µM | > 100 µM | > 100 µM | > 100 µM | > 100 µM | > 100 µM | > 100 µM | > 100 µM | > 100 µM | > 100 µM | > 100 µM | > 100 µM | > 100 µM | > 100 µM | > 100 µM | > 100 µM | > 100 µM | > 100 µM
